In brackets after ≈: the same amount, converted by molar mass.

Common to all, as to type: cell-based
Data set [1] has as its system S. typhimurium in RAW 264.7 cells. Nature of the data set: Intracellular killing assay. As to conditions: 1 h, vs non-treated S. typhimurium group. How it is done: The intracellular killing experiment was performed according to the previous reported protocol ([Birhanu et al., 2018]). RAW 264.7 cells (10^5 cells/ml) were cultured in 24-well plates, and then treated with S. Typhimurium (10^7 CFU/ml) and further incubated for 45 min. After the cells were washed, the compound 5 (8 μg/ml), […] (19 μg/ml) and 32 (34 μg/ml) or gatifloxacin (3 μg/ml) were respectively added and incubated for 1 h at 37 °C. Finally, cells were treated with gentamicin (100 μg/ml) for 1 h and lysed with 0.1% of trition × 100 before being serially diluted and plated on LB agar. The cells infected with S. Typhimurium without treatment was used as the control.

For data set [2], the system named is S. typhimurium invasion of human epithelial cell line (Henle 407). The data set can be described thus: Salmonella invasion assay. As to conditions: Henle 407 cells, triplicate. How it is done: The effect of T3SS inhibitor candidates on the ability of S. typhimurium to invade a cultured human epithelial cell line (Henle 407) was performed in a method similar to one previously described ([Chatterjee et al., 2011]). Henle 407 cells were grown in DMEM with 10% fetal calf serum at 37°C in 5% CO2 in 24-well plates. The plasmid pRK2-SipD with WT SipD was electroporated into the S. typhimurium SipD ^− strain and single colonies were inoculated into LB media supplemented with 25 mg/L trimethoprim, 50 mg/L ampicillin, 50 mg/L kanamycin and grown in standing cultures overnight. A 10 ml LB culture with 1 mM IPTG was inoculated with 1 ml of overnight bacterial growth, and incubated at 37°C on standing for 2.5–3 h. Approximately 15–30 uL of bacterial suspension was added with 300 uL DMEM into the Henle 407 cells and incubated at 37°C for 60 min to allow invasion before the suspension was removed by aspiration. The Henle 407 cells were incubated with fresh DMEM with 100 mg/L of gentamycin for 1.5 h, aspirated, rinsed with DMEM, and lysed with 1% Triton X-100 to free the entrapped bacteria. The number of bacterial colonies, which correlated with invasiveness, was estimated by serial dilution and plating. The Salmonella invasion assay was done in triplicate.

For a further data set, the system named is S. typhi. Nature of the data set: In vitro anti-Salmonella bioassay (MIC). The conditions noted are these: Salmonella enterica, 37°C 24 h, mean ± SD, three times. How it is done:
(§1) The anti-Salmonella activities of these compounds were performed according to the previous reported protocol ([Wei et al., 2016]), using the minimum inhibitory concentration (MIC) with different strains, including S. enteritidis, S. typhi, S. typhimurium, S. paratyphi, S. and abortus equi. Gatifloxacin was used as positive controls. The test compounds 5, 19, and 32 in DMSO were prepared and then poured into 96-well plates. The final concentration of o.39–100 μg/ml underwent a twofold serial dilution. The bacteria were incubated with a series of different concentrations of compounds at 37°C for 24 h. The microbacterial growth was measured at the absorption of 630 nm. All experiments were carried out in triplicate.

In the next data set the test system is S. abortus equi. Nature of the data set: In vitro anti-Salmonella bioassay (MIC). The conditions noted are these: Salmonella enterica, 37°C 24 h, mean ± SD, three times. How it is done: as §1
The subject of another data set is S. enteritidis. Nature of the data set: In vitro anti-Salmonella bioassay (MIC). The conditions noted are these: Salmonella enterica, 37°C 24 h, mean ± SD, three times. How it is done: as §1
A further data set relates to S. paratyphi. The data set can be described thus: In vitro anti-Salmonella bioassay (MIC). As to conditions: Salmonella enterica, 24 h. How it is done: as §1
Another data set has as its system S. typhimurium. Nature of the data set: In vitro anti-Salmonella bioassay (MIC). The conditions noted are these: Salmonella enterica, 37°C 24 h, mean ± SD, three times. How it is done: as §1
The nature of data set [3]: In vitro cytotoxicity assay (MTT). The conditions noted are these: mouse, RAW 264.7 cells, read-out: cell viability. How it is done:
To study the cytotoxic effects of compounds on cell viability, the RAW 264.7 cells were seeded into 96-well plates at 1 ×10^4 cells/well and allowed to attach for 24 h. The medium was replaced with 100 μL medium containing the indicated concentrations of compounds and further incubated for 24 h. Each well was added 10 μL MTT (5 mg/ml in PBS) and the plates were incubated for 4 h at 37°C. Supernatants were aspirated and formed formazan was dissolved in 100 μL of dimethyl sulfoxide (DMSO). The optical density (OD) was measured at an absorbance wavelength of 490 nm using a Microplate Reader (Tecan, Switzerland).

As for `Nc1c(-c2ccc(Cl)cc2)cnn1-c1ccc(C(=O)O)cc1` [Compound 32], in data set [1] (34 μg/ml), the “decrease of intracellular survival of S. typhimurium” value (“decrease” for short) is listed as 52.2%. Further, in data set [2], the effect on invasiveness entry was “most drastic effect on the invasiveness”. The MIC (commonly the least concentration at which growth counts as inhibited) turned out to be 44 ± 4.6 µg/mL (≈ 140 µM) in the data set with S. typhi; 1.2 ± 0.3 µg/mL (≈ 3.82 µM) with S. abortus equi; 22 ± 3 µg/mL (≈ 70.1 µM) with S. enteritidis; 22 ± 2.6 µg/mL (≈ 70.1 µM) in the data set with S. paratyphi; 34.3 ± 3.8 µg/mL (≈ 109 µM) in the data set with S. typhimurium. Besides, in data set [3] (34 μg/ml), the viability (commonly a read-out of living cells in per cent, often relative to untreated cells) at 24 h, 34 μg/ml is 86.4 ± 6.04%.

Regarding `Nc1c(S(=O)(=O)O)ccc2c1C(=O)c1ccccc1C2=O` [Compound 19], in data set [1] (19 μg/ml), the “decrease” value is given as 32.5%. In addition, in data set [2], the effect on invasiveness entry is on record as “most drastic effect on the invasiveness”. The MIC against S. typhi was 31.6 ± 5 µg/mL (≈ 104 µM); in the data set with S. abortus equi, 3 ± 1 µg/mL (≈ 9.89 µM); in the data set with S. enteritidis it was 53.3 ± 4.9 µg/mL (≈ 176 µM); against S. paratyphi, 16.3 ± 3.1 µg/mL (≈ 53.7 µM); with S. typhimurium, 19.1 ± 3.1 µg/mL (≈ 63 µM). In addition, the viability at 24 h, 19 μg/ml in data set [3] (19 μg/ml) stood at 91.5 ± 7.09%.

As to `COc1c(N2CCNC(C)C2)c(F)cc2c(=O)c(C(=O)O)cn(C3CC3)c12` (stereo not drawn) [Gatifloxacin, reference compound], the “intracellular survival suppression of S. typhimurium” value in data set [1] (3 μg/ml) amounted to 60.2%. For the same molecule, the MIC against S. typhi turned out to be 9.7 ± 2.5 µg/mL (≈ 25.8 µM); in the data set with S. abortus equi, 2 ± 1 µg/mL (≈ 5.33 µM); against S. enteritidis, 7.7 ± 1.5 µg/mL (≈ 20.5 µM); against S. paratyphi, 3 ± 1.7 µg/mL (≈ 7.99 µM); with S. typhimurium it was 3.3 ± 1.2 µg/mL (≈ 8.79 µM).

As for `O=C(O)c1ccc(Cn2nnc3sc4c(c3c2=O)CCCC4)cc1` [Compound 5], in data set [1] (8 μg/ml), the “decrease” value is recorded as 44.4%. Moreover, the effect on invasiveness result in data set [2] is “most drastic effect on the invasiveness”. Besides, the MIC against S. typhi came to 12.3 ± 2.1 µg/mL (≈ 36 µM); with S. abortus equi, 5 ± 1 µg/mL (≈ 14.6 µM); against S. enteritidis, 31.6 ± 3.6 µg/mL (≈ 92.6 µM); against S. paratyphi, 24.3 ± 3.5 µg/mL (≈ 71.2 µM); in the data set with S. typhimurium, 8 ± 2 µg/mL (≈ 23.4 µM). Besides, the viability at 24 h, 8 μg/ml in data set [3] (8 μg/ml) was determined as 84.2 ± 5.45%.
